The numbers were not newly measured in the CATMoS acute toxicity set (Mansouri et al. 2021), which cites them from elsewhere.

As a reminder, the LD50 is the dose expected to kill half of the subjects tested.

Where “and” joins values, the source holds several entries; their conditions need not be identical. Equal values may be shown once.

The series in a line: rat acute oral toxicity. To be noted: in vivo.
As to `N=C(N)NCC1CCC(C(=O)Oc2ccccc2C(=O)OCc2ccccc2)CC1` (configuration not stated), the LD50 was 8010 mg/kg.

With `FC(F)(F)c1nc2c(Cl)c(Cl)c(Cl)cc2[nH]1`, the LD50 was 1.52 mg/kg.

As for `CCCCCC(C)(O)CC` (configuration not stated), the LD50 is 3400 mg/kg.

For the molecule `CO[Si](CCCCCCCCCC[Si](OC)(OC)OC)(OC)OC`, the LD50 was 2200 mg/kg.

On to `CC(C)CCCCCCCCCCOC(=O)c1ccccc1C(=O)OCCCCCCCCCCC(C)C`, for which the LD50 was 31400 mg/kg.

Take `CN1[C@@H]2CC[C@H]1C[C@@H](OC1c3ccccc3CCc3ccccc31)C2`: the LD50 is 445 mg/kg.

Regarding `CN1C(=O)CN=C(c2ccccc2F)c2cc(Cl)ccc21`, the LD50 was 1740 mg/kg.

In the case of `CNC(=N)NC(=O)Nc1c(C)cccc1C`, the LD50 was 187 mg/kg and 184 mg/kg.

`COC=CC=C(C#N)C#N`: the LD50 was 200 mg/kg.

As to `Cc1ncc(CS)c(CS)c1O`, the LD50 is 549 mg/kg.

As to `Nc1ccc2c(c1)[nH]c1ccccc12`, the LD50 is 964 mg/kg.

Regarding `NNC(=O)CSc1cc(Oc2ccc(F)cc2)ncn1`, the LD50 is 400 mg/kg.

For the molecule `Oc1cc(Cl)ccc1Oc1ccc(Cl)cc1Cl`, the LD50 is 3700 mg/kg.

Consider `COc1ccc(OCC(=O)N[C@@H]2C(=O)N3[C@@H]2SC(C)(C)[C@@H]3C(=O)O)cc1F`, for which the LD50 was 7000 mg/kg.

Take `O=C(O)c1cc2ccccc2c(Cc2c(O)c(C(=O)OCCOCCN3CCN(C(c4ccccc4)c4ccc(Cl)cc4)CC3)cc3ccccc23)c1O` (configuration not stated): the LD50 was 1740 mg/kg.

With `CN1C(=O)C2C3C=C(C(O)(c4ccccc4)c4ccccn4)C(C3=C(c3ccccc3)c3ccccn3)C2C1=O` (configuration not stated), the LD50 is 12 mg/kg.

For `O=C(O)C1=CC(=CC=[N+]2C(C(=O)O)=Cc3cc(O)c(O)cc32)CC(C(=O)[O-])N1` (configuration not stated), the LD50 is 3140 mg/kg.

For `CCOC(=O)c1cnn(C)c1-n1cnc2ccccc2c1=O`, the LD50 is 1760 mg/kg.

On to `O=C(O)Cc1ccc(-c2ccccc2)cc1`, for which the LD50 was 164 mg/kg.

Consider `CC[Se][Se]CC`, for which the LD50 is 90 mg/kg.

For the molecule `COc1c(Cl)ccc2[nH]c(C(F)(F)F)nc12`, the LD50 was 3.15 mg/kg.

`CC[N+]1(CC)CCCO1`: the LD50 is 150 mg/kg.

Turning to `C=CC[N+](C)(C)CC=C`, the LD50 is 3000 mg/kg.

Consider `CC(C)(C)C(=O)CCl`, for which the LD50 was 550 mg/kg.

In the case of `CN1CCN(C2=Nc3ccccc3Sc3ccc(Cl)cc32)CC1`, the LD50 is 280 mg/kg.

`CC(Oc1c(Cl)cccc1Cl)C1=NCCN1` (configuration not stated): the LD50 was 70 mg/kg.

Regarding `Cc1ccc(S(=O)(=O)N(C)N=O)cc1`, the LD50 is 2700 mg/kg.

For the molecule `ClC1(Cl)C2(Cl)C3C4(Cl)C1(Cl)C1(Cl)C4(Cl)C(Cl)(Cl)C3(Cl)C21Cl` (configuration not stated), the LD50 was 200 mg/kg.

Regarding `C=C(C)C(=O)OCCN(CCOC(=O)C(=C)C)CCOC(=O)C(=C)C`, the LD50 is 11200 mg/kg.

Take `ClC(Cl)=C(c1ccc(Cl)cc1)c1ccc(Cl)cc1`: the LD50 is 880 mg/kg.

In the case of `CCN(CC)C(C)=O`, the median lethal dose (LD50) was 1500 mg/kg.

As for `Cc1cccc(C(=O)O)c1O`, the LD50 was 445 mg/kg.

For the molecule `CC(C)OC(=O)OOC(=O)OC(C)C`, the LD50 is 2140 mg/kg.

Regarding `CC(=O)C=C1CCC2C13CCC(C)C(C3)C2(C)C` (configuration not stated), the LD50 is 5200 mg/kg.

As to `S=P(N1CC1)(N1CC1)N1CC1`, the LD50 was 23 mg/kg.

As to `COC(CN1CCN(CCC(O)c2ccccc2)CC1)c1ccccc1` (configuration not stated), the LD50 is 640 mg/kg.

With `CC(C)=CCCC(C)CC=O` (configuration not stated), the LD50 is 2420 mg/kg and 7200 mg/kg.

Regarding `CC1OC1C1CCC2(C)OC2C1` (configuration not stated), the LD50 was 5630 mg/kg.

In the case of `NCC(O)CO` (configuration not stated), the LD50 was 7500 mg/kg.

On to `CCC1NC(=O)c2cc(N)ccc2O1` (configuration not stated), for which the LD50 was 1890 mg/kg.

As to `Nc1ncc2[nH]cnc2n1`, the LD50 is 723 mg/kg.

Consider `CCOC(C1=NCCCN1)c1ccc(Cl)cc1` (configuration not stated), for which the LD50 is 875 mg/kg.

For the molecule `CSP(=O)(SC)SC`, the LD50 was 30 mg/kg.

With `c1ccc2c(CC3=NCCN3)cccc2c1`, the LD50 was 1260 mg/kg.

In the case of `F[Si](F)(F)c1ccccc1`, the LD50 was 310 mg/kg.

In the case of `CC(C)(N1CC1C#N)N1CC1C(N)=O` (configuration not stated), the LD50 was 3100 mg/kg.

For the molecule `OCc1ccccc1`, the LD50 was 1230 mg/kg.

Take `CC(C)(C)C1CCC(O)CC1` (configuration not stated): the median lethal dose (LD50) was 4200 mg/kg.

On to `CCO[Si](CNCCCCCCN)(OCC)OCC`, for which the LD50 is 500 mg/kg.

For `O=S(=O)(O)c1cccc2c(S(=O)(=O)O)cccc12`, the LD50 was 30000 mg/kg.

Regarding `COP(=S)(OC)SCC(=O)N(c1ccc(Cl)cc1)C(C)C`, the LD50 was 472 mg/kg.

For `O=C(c1ccc2c(c1)C(=O)OC2=O)c1ccc2c(c1)C(=O)OC2=O`, the LD50 was 12800 mg/kg.

`O=S(=O)(Cl)CCCl`: the LD50 is 240 mg/kg.

For `CC(O)COS(C)(=O)=S` (configuration not stated), the LD50 is 794 mg/kg.

As for `Cc1c(CC(=O)O)c2ccccc2n1C(=O)c1ccccc1`, the LD50 was 362 mg/kg.

For the molecule `CCC1OCSC1=NOC(=O)NC` (configuration not stated), the LD50 was 24 mg/kg.

Turning to `C/N=N/Nc1ccccc1`, the LD50 is 420 mg/kg.

Turning to `CCCCC(CC)(COC(N)=O)COC(N)=O`, the LD50 is 662 mg/kg.

Take `CCOC(=O)C(Br)C#N` (configuration not stated): the LD50 is 420 mg/kg.

Consider `NC(Cl)(Cl)c1nc(Cl)c(Cl)c(Cl)c1Cl`, for which the LD50 is 1500 mg/kg.

Regarding `CC(O)COC(C)(C)C` (configuration not stated), the LD50 is 3770 mg/kg.

For the molecule `CN(C)CCN(CCN(C)C)n1cc(-c2ccccc2)c2ccccc21`, the LD50 is 1250 mg/kg.
